One block for each molecule: values may come before it. Activity calls are given as the source filed them.
What was measured:
[1] = target: T1, Coagulation factor XII (Homo sapiens, UniProt P00748); assay: FXIIa inhibitor potency, concentration-response, biochemical (AID 716); format: functional
T1 sequence (P00748 whole entry): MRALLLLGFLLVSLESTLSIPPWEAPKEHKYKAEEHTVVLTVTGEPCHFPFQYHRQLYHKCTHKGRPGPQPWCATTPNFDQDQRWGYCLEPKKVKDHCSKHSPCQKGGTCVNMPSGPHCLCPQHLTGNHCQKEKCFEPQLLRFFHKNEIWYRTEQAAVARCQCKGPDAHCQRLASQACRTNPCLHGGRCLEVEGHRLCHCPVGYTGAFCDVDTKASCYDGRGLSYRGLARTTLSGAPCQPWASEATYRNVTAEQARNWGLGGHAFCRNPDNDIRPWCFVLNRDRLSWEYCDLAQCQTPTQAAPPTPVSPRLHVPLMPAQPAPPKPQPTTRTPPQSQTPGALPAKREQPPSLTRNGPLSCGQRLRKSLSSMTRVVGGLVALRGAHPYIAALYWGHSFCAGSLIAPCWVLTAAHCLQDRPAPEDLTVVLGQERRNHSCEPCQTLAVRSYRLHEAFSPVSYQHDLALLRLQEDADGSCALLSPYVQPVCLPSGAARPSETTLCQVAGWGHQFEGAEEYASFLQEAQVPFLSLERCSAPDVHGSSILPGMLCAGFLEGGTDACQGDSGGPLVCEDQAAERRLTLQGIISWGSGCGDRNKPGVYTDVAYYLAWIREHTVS

[2] = target: Beta-galactosidase (Escherichia coli, UniProt Q8VNN2); assay: beta-galactosidase enzyme inhibitors and activators, dose response, artefact control for CCR6 antagonist project, biochemical, E. coli enzyme, set 3 (AID 504712); format: functional
[3] = target: T2, Caspase-3 (Homo sapiens, UniProt P42574); assay: procaspase-3 activators, dose response, biochemical, absorbance (AID 489014)
T2 sequence (P42574 whole entry): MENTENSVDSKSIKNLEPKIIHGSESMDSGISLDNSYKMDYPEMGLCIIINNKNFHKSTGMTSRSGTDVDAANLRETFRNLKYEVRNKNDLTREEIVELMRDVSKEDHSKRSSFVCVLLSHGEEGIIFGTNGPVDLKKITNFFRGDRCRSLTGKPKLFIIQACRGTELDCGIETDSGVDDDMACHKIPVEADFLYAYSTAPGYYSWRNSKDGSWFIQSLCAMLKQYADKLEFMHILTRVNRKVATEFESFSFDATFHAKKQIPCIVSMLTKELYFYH

[4] = target: Caspase-7 (Homo sapiens, UniProt P55210); assay: procaspase-7 activators, dose response, counter-screen for procaspase-3 activator project, biochemical, absorbance (AID 489013)
[5] = target: Potassium voltage-gated channel subfamily KQT member 2 (Rattus norvegicus, UniProt O88943); assay: retigabine-insensitive KCNQ2 potentiators, concentration-response, dose response, cell-based, retigabine-insensitive compounds (AID 2654); format: functional
[6] = target: T3, Intestinal-type alkaline phosphatase (Homo sapiens, UniProt P09923); assay: inhibition of human intestinal alkaline phosphatase – biochemical, dose response (AID 488876); format: functional
[7] = target: 1-phosphatidylinositol 4,5-bisphosphate phosphodiesterase beta-3 (Homo sapiens, UniProt Q01970); assay: Fluorescence-based biochemical high throughput dose response assay to identify inhibitors of phospholipase C isozymes (PLC-B3).
[8] = target: 1-phosphatidylinositol 4,5-bisphosphate phosphodiesterase gamma-1 (Homo sapiens, UniProt P19174); assay: Counterscreen for inhibitors of phospholipase C isozymes (PLC-B3): Fluorescence-based biochemical high throughput dose response assay to identify inhibitors of phospholipase C isozymes (PLC-gamma1).
[9] = target: ORF 73 (Human herpesvirus 8, UniProt O40947); assay: inhibitors of C-LANA binding to LBS DNA, dose response, biochemical, fluorescence polarization, cherry-picked samples (AID 504725); parameters: species or system Human gammaherpesvirus 8;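 note: fluorescence polarization of a labeled DNA duplex reporting LANA DNA binding; potency is for inhibitors that block LANA binding to the DNA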
[10] = target: T4, Alkaline phosphatase, tissue-nonspecific isozyme (Homo sapiens, UniProt P05186); assay: TNAP enzyme inhibition by screening hits, dose response, selectivity assay for mouse IAP inhibitor project, biochemical, human TNAP, uHTS hits (AID 488906); format: functional
T4 sequence (P05186 whole entry): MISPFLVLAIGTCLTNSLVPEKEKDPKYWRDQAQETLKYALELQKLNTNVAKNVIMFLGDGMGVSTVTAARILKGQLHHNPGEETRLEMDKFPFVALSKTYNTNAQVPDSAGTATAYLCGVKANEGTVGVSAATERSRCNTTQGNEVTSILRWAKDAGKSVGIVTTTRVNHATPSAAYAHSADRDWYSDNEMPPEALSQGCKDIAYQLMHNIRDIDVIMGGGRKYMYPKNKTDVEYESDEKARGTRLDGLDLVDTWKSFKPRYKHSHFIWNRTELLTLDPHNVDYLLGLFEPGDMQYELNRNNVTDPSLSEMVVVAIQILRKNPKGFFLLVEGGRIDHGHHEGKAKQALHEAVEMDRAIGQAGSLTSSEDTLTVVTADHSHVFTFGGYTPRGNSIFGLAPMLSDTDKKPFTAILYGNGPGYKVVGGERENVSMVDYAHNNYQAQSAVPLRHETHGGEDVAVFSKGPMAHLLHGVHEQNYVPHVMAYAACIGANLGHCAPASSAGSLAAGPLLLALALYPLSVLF

[11] = target: Intestinal-type alkaline phosphatase (Mus musculus, UniProt P24822); assay: PubChem AID 488785; format: functional
[12] = target: T5, Histone-lysine N-methyltransferase NSD2 (Homo sapiens, UniProt O96028); format: biochemical
T5 sequence (O96028 whole entry): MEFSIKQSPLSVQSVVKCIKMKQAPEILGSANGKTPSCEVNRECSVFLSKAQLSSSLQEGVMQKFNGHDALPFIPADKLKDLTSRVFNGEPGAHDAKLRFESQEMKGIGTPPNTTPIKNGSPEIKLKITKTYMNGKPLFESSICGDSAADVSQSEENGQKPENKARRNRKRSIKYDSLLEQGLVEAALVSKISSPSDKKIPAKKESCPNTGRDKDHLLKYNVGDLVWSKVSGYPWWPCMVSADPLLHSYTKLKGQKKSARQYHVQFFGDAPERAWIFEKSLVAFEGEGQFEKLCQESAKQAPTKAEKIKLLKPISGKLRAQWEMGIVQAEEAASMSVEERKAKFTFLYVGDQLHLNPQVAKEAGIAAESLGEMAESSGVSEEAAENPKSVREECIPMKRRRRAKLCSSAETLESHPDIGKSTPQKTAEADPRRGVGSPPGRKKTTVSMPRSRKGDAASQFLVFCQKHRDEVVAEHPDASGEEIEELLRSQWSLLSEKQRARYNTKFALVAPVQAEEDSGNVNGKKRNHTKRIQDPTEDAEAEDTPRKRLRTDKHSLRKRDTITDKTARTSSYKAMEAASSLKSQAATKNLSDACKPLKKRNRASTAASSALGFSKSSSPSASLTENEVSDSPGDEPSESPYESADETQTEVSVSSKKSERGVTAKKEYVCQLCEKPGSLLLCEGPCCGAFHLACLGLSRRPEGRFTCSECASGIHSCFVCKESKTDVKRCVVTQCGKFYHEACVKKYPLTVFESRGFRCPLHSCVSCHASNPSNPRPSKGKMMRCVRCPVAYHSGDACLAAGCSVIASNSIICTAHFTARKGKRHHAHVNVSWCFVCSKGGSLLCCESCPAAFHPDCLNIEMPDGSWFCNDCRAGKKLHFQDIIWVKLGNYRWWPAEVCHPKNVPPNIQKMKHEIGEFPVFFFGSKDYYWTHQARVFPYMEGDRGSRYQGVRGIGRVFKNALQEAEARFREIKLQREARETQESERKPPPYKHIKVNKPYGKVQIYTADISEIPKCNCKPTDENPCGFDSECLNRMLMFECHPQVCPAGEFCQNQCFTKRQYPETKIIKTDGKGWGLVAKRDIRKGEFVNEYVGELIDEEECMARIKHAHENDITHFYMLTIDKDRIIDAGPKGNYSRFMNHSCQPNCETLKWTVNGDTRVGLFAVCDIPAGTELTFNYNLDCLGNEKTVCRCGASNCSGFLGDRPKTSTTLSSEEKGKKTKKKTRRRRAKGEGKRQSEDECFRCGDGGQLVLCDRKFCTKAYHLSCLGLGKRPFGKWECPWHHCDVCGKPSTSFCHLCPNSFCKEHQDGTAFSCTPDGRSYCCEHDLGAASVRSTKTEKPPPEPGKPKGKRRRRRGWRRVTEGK

[13] = target: T6, Short transient receptor potential channel 4 (Mus musculus, UniProt Q9QUQ5); assay: TRPC4 positive allosteric modulators, dose response, cell-based, HEK293 TRPC4/mu-opioid, Fluo-4 calcium, EC20 DAMGO (AID 434941); format: functional
T6 sequence (Q9QUQ5 whole entry): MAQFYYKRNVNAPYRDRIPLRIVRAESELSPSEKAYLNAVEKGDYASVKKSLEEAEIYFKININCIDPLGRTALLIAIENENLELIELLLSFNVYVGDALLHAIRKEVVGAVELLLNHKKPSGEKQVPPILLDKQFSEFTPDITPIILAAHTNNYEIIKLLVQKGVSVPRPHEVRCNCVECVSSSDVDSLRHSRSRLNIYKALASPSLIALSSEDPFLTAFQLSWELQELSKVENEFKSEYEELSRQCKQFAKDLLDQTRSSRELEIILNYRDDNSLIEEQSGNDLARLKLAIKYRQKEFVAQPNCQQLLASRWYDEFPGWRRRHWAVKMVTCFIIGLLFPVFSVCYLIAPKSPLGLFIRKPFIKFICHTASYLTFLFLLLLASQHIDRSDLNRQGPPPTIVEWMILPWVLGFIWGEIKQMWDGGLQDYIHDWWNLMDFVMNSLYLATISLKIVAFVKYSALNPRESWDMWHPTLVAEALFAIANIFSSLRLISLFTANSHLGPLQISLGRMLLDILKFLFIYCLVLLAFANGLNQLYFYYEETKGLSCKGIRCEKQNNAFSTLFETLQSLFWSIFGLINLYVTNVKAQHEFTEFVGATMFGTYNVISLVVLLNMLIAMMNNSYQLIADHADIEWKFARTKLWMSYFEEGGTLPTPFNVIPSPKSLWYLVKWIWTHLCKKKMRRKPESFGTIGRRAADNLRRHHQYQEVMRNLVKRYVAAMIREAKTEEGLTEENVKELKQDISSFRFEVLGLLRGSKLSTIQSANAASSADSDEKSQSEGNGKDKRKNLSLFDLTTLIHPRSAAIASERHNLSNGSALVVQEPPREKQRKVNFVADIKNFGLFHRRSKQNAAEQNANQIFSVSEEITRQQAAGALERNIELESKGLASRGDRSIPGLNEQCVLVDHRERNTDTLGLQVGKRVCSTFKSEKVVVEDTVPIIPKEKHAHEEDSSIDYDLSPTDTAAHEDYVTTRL

[14] = target: DNA dC->dU-editing enzyme APOBEC-3A (Homo sapiens, UniProt P31941); assay: APOBEC3A DNA deaminase inhibitors, dose response, biochemical (AID 504722); format: functional
[15] = target: DNA dC->dU-editing enzyme APOBEC-3G (Homo sapiens, UniProt Q9HC16); assay: Dose Response confirmation of small molecule APOBEC3G DNA Deaminase Inhibitors via a fluorescence-based single-stranded DNA deaminase assay. [Related pubchem assays (depositor defined):AID493012, AID493028]; format: functional
[16] = target: T4, Alkaline phosphatase, tissue-nonspecific isozyme; assay: human TNAP enzyme inhibitors, SAR follow-up, biochemical, luminescent, dose response (AID 1056)
[17] = target: Phosphoethanolamine/phosphocholine phosphatase (Homo sapiens, UniProt Q8TCT1); assay: SAR assay for compounds that inhibit PHOSPHO1. [Related pubchem assays (depositor defined):AID1545, AID1565, AID1574]
[18] = target: Phosphomannomutase 2 (Homo sapiens, UniProt O15305); assay: Counter screen SAR assay for PMM2 inhibitors via a fluorescence intensity assay. [Related pubchem assays (depositor defined):AID1545, AID1574]
[19] = target: Glucose-6-phosphate 1-dehydrogenase (Homo sapiens, UniProt P11413); assay: human G6PD enzyme inhibitors, dose response, selectivity assay for P. falciparum G6PD inhibitor project, biochemical, fluorescence (AID 504792); format: functional
[20] = target: Alkaline phosphatase, placental type (Homo sapiens, UniProt P05187); assay: PLAP enzyme inhibitors, confirmation, biochemical, luminescence (AID 1512); format: functional
[21] = target: T3, Intestinal-type alkaline phosphatase; assay: Dose Response confirmation of uHTS hits from a small molecule inhibitors of human intestinal alkaline phosphatase via a luminescent assay. [Related pubchem assays (depositor defined):AID2544, AID2574]; format: functional

T3 sequence (P09923 whole entry): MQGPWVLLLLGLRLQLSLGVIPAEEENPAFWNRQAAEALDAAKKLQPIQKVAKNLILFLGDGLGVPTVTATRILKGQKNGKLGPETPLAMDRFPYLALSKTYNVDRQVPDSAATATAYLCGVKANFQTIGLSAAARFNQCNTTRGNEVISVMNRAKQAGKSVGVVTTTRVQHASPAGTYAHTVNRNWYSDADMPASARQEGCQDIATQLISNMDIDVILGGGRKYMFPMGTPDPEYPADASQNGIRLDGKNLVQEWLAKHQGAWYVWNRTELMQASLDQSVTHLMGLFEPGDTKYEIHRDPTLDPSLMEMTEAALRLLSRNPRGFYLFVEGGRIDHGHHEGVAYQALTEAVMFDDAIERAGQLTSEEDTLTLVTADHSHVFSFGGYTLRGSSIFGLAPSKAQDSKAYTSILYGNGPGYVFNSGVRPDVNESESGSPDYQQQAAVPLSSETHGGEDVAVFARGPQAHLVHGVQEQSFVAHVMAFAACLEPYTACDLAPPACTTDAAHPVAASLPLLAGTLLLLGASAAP
Chain of 1-phosphatidylinositol 4,5-bisphosphate phosphodiesterase gamma-1 (P19174 whole entry): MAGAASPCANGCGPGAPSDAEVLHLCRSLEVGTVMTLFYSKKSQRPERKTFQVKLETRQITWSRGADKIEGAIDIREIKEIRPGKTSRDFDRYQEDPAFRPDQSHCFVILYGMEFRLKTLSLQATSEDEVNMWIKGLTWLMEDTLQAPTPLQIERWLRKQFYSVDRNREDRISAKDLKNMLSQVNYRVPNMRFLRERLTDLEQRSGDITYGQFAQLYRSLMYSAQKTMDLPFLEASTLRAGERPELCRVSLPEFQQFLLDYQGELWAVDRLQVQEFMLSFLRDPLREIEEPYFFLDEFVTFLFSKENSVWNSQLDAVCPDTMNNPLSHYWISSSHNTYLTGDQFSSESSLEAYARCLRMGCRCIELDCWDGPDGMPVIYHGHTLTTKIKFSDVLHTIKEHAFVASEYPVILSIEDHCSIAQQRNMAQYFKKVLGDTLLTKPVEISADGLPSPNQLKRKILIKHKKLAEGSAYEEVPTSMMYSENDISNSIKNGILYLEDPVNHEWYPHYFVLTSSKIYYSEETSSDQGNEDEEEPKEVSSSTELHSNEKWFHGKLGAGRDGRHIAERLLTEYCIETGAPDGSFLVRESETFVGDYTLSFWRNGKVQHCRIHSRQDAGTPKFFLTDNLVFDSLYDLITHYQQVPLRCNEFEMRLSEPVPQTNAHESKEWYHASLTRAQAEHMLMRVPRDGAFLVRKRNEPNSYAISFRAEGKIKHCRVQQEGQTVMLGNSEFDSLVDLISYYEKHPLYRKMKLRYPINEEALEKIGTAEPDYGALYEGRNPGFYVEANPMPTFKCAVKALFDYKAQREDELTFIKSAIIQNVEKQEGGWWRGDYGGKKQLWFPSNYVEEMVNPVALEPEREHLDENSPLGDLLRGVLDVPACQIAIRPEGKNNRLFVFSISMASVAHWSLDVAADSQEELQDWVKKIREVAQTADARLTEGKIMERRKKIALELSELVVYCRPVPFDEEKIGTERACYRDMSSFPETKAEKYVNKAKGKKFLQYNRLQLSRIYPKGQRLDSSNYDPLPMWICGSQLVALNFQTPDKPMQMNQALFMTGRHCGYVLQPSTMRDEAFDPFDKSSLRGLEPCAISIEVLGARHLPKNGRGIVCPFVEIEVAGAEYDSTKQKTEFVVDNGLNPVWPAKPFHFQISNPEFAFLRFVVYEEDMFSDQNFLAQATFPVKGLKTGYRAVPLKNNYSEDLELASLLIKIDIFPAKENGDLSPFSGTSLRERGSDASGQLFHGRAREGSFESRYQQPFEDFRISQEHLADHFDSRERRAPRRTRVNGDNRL
Chain of Potassium voltage-gated channel subfamily KQT member 2 (O88943 whole entry): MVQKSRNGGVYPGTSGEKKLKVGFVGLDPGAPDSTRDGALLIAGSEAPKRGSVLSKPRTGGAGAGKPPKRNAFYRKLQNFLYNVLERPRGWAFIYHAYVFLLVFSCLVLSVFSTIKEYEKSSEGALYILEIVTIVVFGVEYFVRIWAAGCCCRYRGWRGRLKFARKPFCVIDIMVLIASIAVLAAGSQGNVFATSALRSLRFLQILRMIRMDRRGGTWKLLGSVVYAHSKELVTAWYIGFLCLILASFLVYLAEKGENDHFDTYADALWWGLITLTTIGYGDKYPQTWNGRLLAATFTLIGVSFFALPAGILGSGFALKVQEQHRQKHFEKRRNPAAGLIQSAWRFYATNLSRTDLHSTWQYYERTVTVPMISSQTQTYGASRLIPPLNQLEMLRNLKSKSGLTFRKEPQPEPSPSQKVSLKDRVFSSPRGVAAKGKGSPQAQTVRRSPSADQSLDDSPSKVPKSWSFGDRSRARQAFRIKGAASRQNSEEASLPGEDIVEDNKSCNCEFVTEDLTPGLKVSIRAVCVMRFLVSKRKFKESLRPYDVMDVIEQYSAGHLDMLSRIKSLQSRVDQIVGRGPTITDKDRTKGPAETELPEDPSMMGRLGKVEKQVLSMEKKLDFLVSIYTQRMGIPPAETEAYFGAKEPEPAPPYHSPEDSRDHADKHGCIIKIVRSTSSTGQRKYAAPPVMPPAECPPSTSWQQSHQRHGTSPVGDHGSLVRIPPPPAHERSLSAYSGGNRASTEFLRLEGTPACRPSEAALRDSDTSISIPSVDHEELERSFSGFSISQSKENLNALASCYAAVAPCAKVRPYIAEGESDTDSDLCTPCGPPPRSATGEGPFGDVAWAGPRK
Chain of DNA dC->dU-editing enzyme APOBEC-3G (Q9HC16 whole entry): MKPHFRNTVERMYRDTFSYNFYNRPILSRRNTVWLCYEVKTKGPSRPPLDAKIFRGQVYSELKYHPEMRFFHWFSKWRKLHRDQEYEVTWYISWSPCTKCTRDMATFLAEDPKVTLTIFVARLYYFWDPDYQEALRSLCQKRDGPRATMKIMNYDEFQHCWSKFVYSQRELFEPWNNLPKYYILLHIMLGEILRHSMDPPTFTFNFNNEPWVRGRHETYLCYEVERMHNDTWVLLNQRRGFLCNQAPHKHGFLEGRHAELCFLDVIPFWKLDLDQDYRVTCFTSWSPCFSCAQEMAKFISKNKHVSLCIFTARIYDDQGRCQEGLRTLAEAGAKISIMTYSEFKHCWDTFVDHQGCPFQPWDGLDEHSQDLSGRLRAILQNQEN
Chain of Beta-galactosidase (Q8VNN2 whole entry): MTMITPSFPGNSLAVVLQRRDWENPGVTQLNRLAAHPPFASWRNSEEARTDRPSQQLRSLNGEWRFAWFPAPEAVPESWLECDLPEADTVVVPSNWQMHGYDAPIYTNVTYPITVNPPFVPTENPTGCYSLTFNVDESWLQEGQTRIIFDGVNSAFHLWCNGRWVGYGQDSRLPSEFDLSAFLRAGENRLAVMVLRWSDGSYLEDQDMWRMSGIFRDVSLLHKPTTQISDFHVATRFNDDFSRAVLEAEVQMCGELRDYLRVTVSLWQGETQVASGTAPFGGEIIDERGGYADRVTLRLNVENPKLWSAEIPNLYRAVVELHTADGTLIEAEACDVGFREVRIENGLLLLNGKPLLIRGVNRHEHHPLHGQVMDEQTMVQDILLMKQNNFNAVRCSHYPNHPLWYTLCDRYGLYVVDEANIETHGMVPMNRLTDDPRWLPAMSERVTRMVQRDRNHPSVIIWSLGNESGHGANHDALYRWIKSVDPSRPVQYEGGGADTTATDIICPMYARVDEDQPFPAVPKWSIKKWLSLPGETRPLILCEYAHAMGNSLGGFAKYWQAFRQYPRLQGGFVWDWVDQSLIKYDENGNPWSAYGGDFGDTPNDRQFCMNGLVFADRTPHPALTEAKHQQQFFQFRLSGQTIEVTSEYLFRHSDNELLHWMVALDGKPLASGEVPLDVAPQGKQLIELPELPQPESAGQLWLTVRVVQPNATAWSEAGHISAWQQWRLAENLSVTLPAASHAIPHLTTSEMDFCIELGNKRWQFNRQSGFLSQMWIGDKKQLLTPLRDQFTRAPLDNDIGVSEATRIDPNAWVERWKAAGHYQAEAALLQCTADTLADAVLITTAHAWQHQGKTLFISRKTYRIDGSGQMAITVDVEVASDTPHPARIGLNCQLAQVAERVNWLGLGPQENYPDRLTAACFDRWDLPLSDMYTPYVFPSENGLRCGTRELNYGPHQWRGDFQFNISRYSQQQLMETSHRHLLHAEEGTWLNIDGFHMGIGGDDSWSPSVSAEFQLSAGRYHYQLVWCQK
Chain of Phosphoethanolamine/phosphocholine phosphatase (Q8TCT1 whole entry): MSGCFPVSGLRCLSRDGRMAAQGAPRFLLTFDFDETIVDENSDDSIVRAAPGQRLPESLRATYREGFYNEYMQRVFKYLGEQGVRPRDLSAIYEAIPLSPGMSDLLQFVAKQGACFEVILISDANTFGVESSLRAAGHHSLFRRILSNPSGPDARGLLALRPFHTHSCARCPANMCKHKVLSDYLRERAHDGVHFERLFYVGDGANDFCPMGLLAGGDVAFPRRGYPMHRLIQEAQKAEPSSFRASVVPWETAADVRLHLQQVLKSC
Chain of DNA dC->dU-editing enzyme APOBEC-3A (P31941 whole entry): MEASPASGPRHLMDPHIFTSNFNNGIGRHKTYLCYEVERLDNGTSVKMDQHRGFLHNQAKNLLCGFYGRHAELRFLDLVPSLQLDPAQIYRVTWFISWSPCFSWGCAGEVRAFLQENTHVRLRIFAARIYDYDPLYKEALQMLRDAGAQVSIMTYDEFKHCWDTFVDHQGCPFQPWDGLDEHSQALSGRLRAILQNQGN
Chain of Phosphomannomutase 2 (O15305 whole entry): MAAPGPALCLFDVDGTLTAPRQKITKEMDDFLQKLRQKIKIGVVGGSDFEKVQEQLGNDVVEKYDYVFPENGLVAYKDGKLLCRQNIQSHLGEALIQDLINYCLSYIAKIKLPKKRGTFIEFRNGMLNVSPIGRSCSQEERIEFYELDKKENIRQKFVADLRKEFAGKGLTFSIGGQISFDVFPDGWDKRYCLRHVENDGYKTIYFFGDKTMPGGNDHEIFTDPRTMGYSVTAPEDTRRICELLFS

- IC50 [1]: > 50 µM (inactive)
Structure (SMILES): CCOC(=O)CSc1nnc(CNC(=O)Cc2ccccc2)n1C

- IC50 [2]: > 66.6 µM (inactive)
Structure (SMILES): CCCOc1cccc(C(=O)NC(=S)Nc2cccc(C(F)(F)F)c2)c1

- EC50 [3]: > 85.2 µM (inactive)
- EC50 [4]: > 85.2 µM (inactive)
Structure (SMILES): CC1(C)CC(=O)C2=C(C1)c1c(ccc3ccccc13)NC2c1ccc(Br)o1 (configuration not stated)

- EC50 [5]: 10.7 µM (active)
Structure (SMILES): Cc1cc(C)cc(NC(=O)Nc2cccnc2)c1

- IC50 [6]: > 100 µM (inactive)
- IC50 [7]: > 122 µM (inactive)
- IC50 [8]: > 122 µM (inactive)
- AC50 [9]: 47.2 µM (active)
- IC50 [10]: > 100 µM (inactive)
- IC50 [11]: 6.43 µM (active)
- AC50 [12]: 16.1 µM (active)
Structure (SMILES): O=C(CCCN1C(=O)/C(=C\c2ccco2)SC1=S)Nc1ccc(O)cc1C(=O)O

- EC50 [13]: 0.47 µM (active)
Structure (SMILES): COc1ccc(/N=C(\C)C2=C(O)C(=O)N(CCO)C2c2ccc([N+](=O)[O-])cc2)cc1 (configuration not stated)

Structure (SMILES): O=c1c2cc(F)ccc2sn1-c1ccc(F)cc1
- IC50 [14]: > 100 µM (inactive)
- IC50 [15]: 15.5 µM (active)
- IC50 [16]: > 100 µM (inactive)
- IC50 [17]: > 10 µM (inactive)
- IC50 [18]: 86.9 µM (active)
- IC50 [19]: 16.7 µM (active)

- IC50 [16]: 5.64 µM (active)
- IC50 [20]: 2.73 µM (active)
- IC50 [21]: > 100 µM (inactive)
Structure (SMILES): Cc1cc2nc(C3CCN(Cc4nnnn4Cc4cccs4)CC3)[nH]c2cc1C

Reference: ChEMBL document CHEMBL1201862, “PubChem BioAssay data set” (2004)
